Source: patent US7803803B2, “Tetrahydrofuro[3,2-B] pyrrol-3-ones as cathepsin K inhibitors” (Amura Therapeutics Limited, priority 2007, dated 2010)

Legend:
human osteoclasts [1] = settings: human osteoclast, literature value; cited from earlier work
LogD determinations = type: physicochemical; settings: Ion-count method; for logD at 1 h: 1-octanol/phosphate buffered saline, pH 7.4, pH 7.4
Protocol: LogD(PBS) determinations were performed in 96 well microtitre plates using a miniaturised “shake-flask” method. […] The plates were then capped and mixed vigorously for 1 hour on a microtitre plate shaker, after which they were left to stand, allowing the PBS and octanol phases to separate. The PBS layer was analysed by reverse phase HPLC with mass spectrometric detection, using single ion monitoring of the [M+H]^+ species.
Where AUCstd and AUCpbs are the peak areas from the standard and test ion chromatograms respectively.

[2] = Plasma incubations (human plasma stability); type: in vitro ADME; settings: 37° C. Also: tested at 25 µM.
Protocol: Aliquots were removed at 2 and 60 minutes and quenched with an equal volume of cold acetonitrile. After mixing vigorously, the precipitated protein matter was removed by filtration (Multiscreen Solvinert filter plates, Millipore, Bedford, Mass., USA) and the filtrate analysed by reverse phase HPLC with mass spectrometric detection, using single ion monitoring of the [M+H]^+ species. Metabolic turnover was determined by comparison of peak areas from the ion chromatograms of the parent compound at 2 and 60 minutes and expressed as percent remaining at 1 hour.

[3] = UV method, literature value; cited from earlier work
cathepsin K = molecular target: T1, cathepsin K (Homo sapiens, UniProt P43235); test: In vitro cathepsin Ki inhibition measurements; type: biochemical; set-up: purchased B. Turk, Josef Stefan Institute, Ljubljana, Slovenia; settings: human recombinant cathepsin K; read-out: In vitro Ki (nM) vs Cath K
T1 sequence (P43235 115-329): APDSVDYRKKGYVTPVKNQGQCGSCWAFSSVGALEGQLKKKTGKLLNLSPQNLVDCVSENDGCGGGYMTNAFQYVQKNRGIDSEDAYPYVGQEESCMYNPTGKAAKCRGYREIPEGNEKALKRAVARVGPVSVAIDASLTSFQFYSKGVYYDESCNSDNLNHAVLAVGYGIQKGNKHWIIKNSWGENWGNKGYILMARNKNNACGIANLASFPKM
Protocol: Stock solutions of substrate or inhibitor were made up to 10 mM in 100% dimethylsulfoxide (DMSO) (Rathburns, Glasgow, U.K.) and diluted as appropriately required. In all cases the DMSO concentration in the assays was maintained at less than 1% (vol./vol.). The equilibrium inhibition constants (Ki^SS) for each compound were measured under steady-state conditions monitoring enzyme activity as a function of inhibitor concentration. The values were calculated on the assumption of pure competitive behaviour (Cornish-Bowden, A. Fundamentals of enzyme kinetics Portland Press; 1995, 93-128). Human recombinant cathepsin K (0.25 nM final; B. Turk, Josef, Stefan Institute, Ljubljana, Slovenia), was routinely assayed in 100 mM sodium acetate; pH 5.5 containing 1 mM EDTA, 10 mM L-cysteine and 1.8 μM Z-Leu-Arg-AMC ([S]═KM).
The apparent inhibition constant (Ki) for each compound was determined on the basis that inhibition was reversible and occurred by a pure-competitive mechanism. The Ki values were calculated, from the dependence of enzyme activity as a function of inhibitor concentration, by direct regression analysis (Prism v 3.02) using Equation 2 (Cornish-Bowden, A., 1995).
In situations where the apparent dissociation constant (Ki^app) approached the enzyme concentrations, the Ki^app values were calculated using a quadratic solution in the form described by Equation 3 (Morrison, J. F. Trends Biochem. Sci., 7, 102-105, 1982; Morrison, J. F. Biochim. Biophys. Acta, 185, 269-286, 1969; Stone, S. R. and Hofsteenge, J. Biochemistry, 25, 4622-4628, 1986).
Curves were fitted by non-linear regression analysis (Prism) using a fixed value for the enzyme concentration. Equation 4 was used to account for the substrate kinetics, where ‘Ki’ is the inhibition constant, ‘[So]’ is the initial substrate concentration and ‘KM^app’ is the apparent macroscopic binding (Michaelis) constant for the substrate (Morrison, 1982).

human osteoclasts [4] = test: Human osteoclast resorption assay; type: cell-based; settings: Homo sapiens, Osteoclast, 48 h, 1 □ M, read-out: Cell-based % Inh. @ 1 □ M Human
Protocol: Bone resorption was studied using a model where human osteoclast precursor cells were cultured on bovine bone slices for 9 days and allowed to differentiate into bone-resorbing osteoclasts. The formed mature osteoclasts were then allowed to resorb bone. The assay was performed by Pharmatest Services Ltd, Itäinen Pitkakatu 4C, Turku, Finland. After the culture period, bone collagen degradation products were quantified from the culture medium as an index of bone resorption. Inhibitor compounds were added into the cell cultures after the differentiation period and their effects on the resorbing activity of mature osteoclasts were determined. The studies included a baseline group without added compounds and a positive control group where a potent cathepsin K inhibitor E-64 was added.
Human peripheral blood monocytes were suspended to culture medium and allowed to attach to bovine bone slices. The bone slices were transferred into 96-well tissue culture plates containing culture medium with appropriate amounts of important growth factors favouring osteoclast differentiation, including M-CSF, RANK-ligand and TGF-[…]. The cells were incubated in a CO2 incubator in humidified atmosphere of 95% air and 5% carbon dioxide at 37° C. At day 7 when osteoclast differentiation was complete, the culture medium was replaced with culture medium containing conditions favouring osteoclast activity. The cell culture was continued for an additional 2 days, during which the formed mature osteoclasts were allowed to resorb bone in the presence of vehicle, control inhibitor (E64) or test compounds. At the end of the culture, bone collagen degradation products released into the culture medium were determined using a commercially available ELISA method (CrossLaps® for culture, Nordic Bioscience, Herlev, Denmark) as an index of bone resorption (see Bagger, Y. Z. et al, J. Bone. Miner. Res. 14 (suppl. 1), S370).

Row | logD at 1 h (LogD determinations) | Human Plasma Stability % rem. @ 1 h [2] | Ki (cathepsin K) | LogD pH 7.4 (LogD determinations; pH 7.4) | SMILES | Cell-based % Inh. @ 1 □ M Human (Lit.) (human osteoclasts [1]) | LogD pH 7.4 (Lit.) [3] | inhibition at 1 µM (human osteoclasts [4])
1 | 1.36 | 75% | – | – | CC(C)C[C@H](NC(=O)c1ccc(C(C)(C)C)cc1)C(=O)N1CC[C@H]2OCC(=O)[C@H]21 [reference compound] | Lit. 60% | – | –
2 | 0.56 | 95% | 8.7 nM | – | CC(C)C[C@H](NC(=O)c1ccc(N2CCN(C)CC2)cc1)C(=O)N1CC[C@H]2OCC(=O)[C@H]21 [reference compound] | – | 0.04 | –
3 | > 0.8 | 92% | 16.3 nM | 1.34 | CCCN1CCN(c2ccc(C(=O)N[C@@H](CC(C)C)C(=O)N3C[C@@H](OC)[C@H]4OCC(=O)[C@H]43)cc2)CC1 [Example 15, N—((S)-1-((3aS,6R,6aS)-6-methoxy-3-oxodihydro-2H-furo[3,2-b]pyrrol-4(5H,6H,6aH)-yl)-4-methyl-1-oxopentan-2-yl)-4-(4-propylpiperazin-1-yl)benzamide] | – | – | 63 to 88%
